{"source": "patent US7358359B2", "about": "“Antibacterial agents” (University of Washington, priority 2003, dated 2008)", "assay_type_in_all_cases": "cell-based", "key": {"[1]": {"test_system": "Pseudomonas aeruginosa cystic fibrosis isolate 1145", "assay": "microbe, parasite or virus in culture", "conditions": "strain 1145, MDR, comparator antibacterials, read-out: MIC", "experimental": "(§1) Bacterial isolates were cultivated from −70° C. frozen stocks by two consecutive overnight passages at 35° C. in ambient air on 5% blood agar (Remel, Lenexa, Kans.). Clinical isolates tested were from a collection composed of isolates collected during clinical trials and recent clinical isolates obtained from various geographically diverse hospitals in the US. Quality control and primary panel strains were from the American Type Culture Collection (ATCC; Rockville, Md.), with the exception of P. aeruginosa PAO200, a strain with a deletion of the mexABoprM genes that was received from Dr. H. Schweizer.\n(§2) Minimum Inhibitory Concentrations (MICs) were determined by the broth microdilution method in accordance with the National Committee for Clinical Laboratory Standards (NCCLS) guidelines. In brief, organism suspensions were are adjusted to a 0.5 McFarland standard to yield a final inoculum between 3×10^5 and 7×10^5 colony-forming units (CFU)/mL. Drug dilutions and inocula were made in sterile, cation adjusted Mueller-Hinton Broth (Remel). An inoculum volume of 100 μl was added to wells containing 100 μl of broth with 2-fold serial dilutions of drug. All inoculated microdilution trays were incubated in ambient air at 35° C. for 18-24 hours. Following incubation, the lowest concentration of the drug that prevented visible growth was recorded as the MIC."}, "[2]": {"test_system": "Pseudomonas aeruginosa cystic fibrosis isolate 3206", "assay": "microbe, parasite or virus in culture", "conditions": "strain 3206, MDR, comparator antibacterials, read-out: MIC", "experimental": "as §1, §2"}, "Enterobacter cloacae": {"test_system": "Enterobacter cloacae", "assay": "MIC vs enteric organisms: Enterobacter cloacae", "conditions": "E. clo., comparator antibacterials", "experimental": "as §1, §2"}, "Burkholderia cepacia": {"test_system": "Burkholderia cepacia", "assay": "MIC vs non-fermenting organisms: Burkholderia cepacia", "conditions": "B. cepacia, comparator antibacterials", "experimental": "as §1, §2"}, "Serratia marcescens": {"test_system": "Serratia marcescens", "assay": "MIC vs enteric organisms: Serratia marcescens", "conditions": "S. marc., comparator antibacterials", "experimental": "as §1, §2"}, "[3]": {"test_system": "Pseudomonas aeruginosa cystic fibrosis isolate 3232", "assay": "MIC vs cystic fibrosis isolate of P. aeruginosa 3232 (Ceftaz. R)", "conditions": "strain 3232, Ceftaz. R, comparator antibacterials"}, "[4]": {"test_system": "Pseudomonas aeruginosa cystic fibrosis isolate 2196", "assay": "MIC vs cystic fibrosis isolate of P. aeruginosa 2196 (resistant to ciprofloxacin)", "conditions": "strain 2196, Cipro R, comparator antibacterials", "experimental": "as §1, §2"}, "[5]": {"test_system": "Acinetobacter calcoaceticus", "assay": "MIC vs non-fermenting organisms: Acinetobacter calcoaceticus", "conditions": "Acinet. calc., comparator antibacterials", "experimental": "as §1, §2"}, "[6]": {"test_system": "non-CF clinical isolates of P. aeruginosa", "assay": "MIC vs non-CF clinical isolates of P. aeruginosa", "conditions": "Pseudomonas aeruginosa, comparator antibacterials", "experimental": "as §1, with “Schweizer. […] Strain Z61 (ATCC 35151) is also hypersusceptible to antibacterials. It is thought that the hypersusceptibility of this strain is the result of increased permeability of its outer membrane (Angus B L et al, Antimicrobial Agents and Chemotherapy 1982 21,299-309: Outer membrane permeability in Pseudomonas aeruginosa: Comparison of a wild-type with an antibacterial-supersusceptible mutant).” for “Schweizer.”\nas §2, with “MIC. Performance of the assay was monitored by the use of laboratory quality-control strains against tobramycin, that has a defined MIC spectrum, in accordance with NCCLS guidelines.” for “MIC.”"}, "Alcaligenes xylosoxidans": {"test_system": "Alcaligenes xylosoxidans", "assay": "MIC vs non-fermenting organisms: Alcaligenes xylosoxidans", "conditions": "Achromobacter xylosoxidans; Alcal. xyl; comparator antibacterials", "experimental": "as §1, §2"}, "Klebsiella pneumoniae": {"test_system": "Klebsiella pneumoniae", "assay": "MIC vs enteric organisms: Klebsiella pneumoniae", "conditions": "K. pneu., comparator antibacterials", "experimental": "as §1, §2"}, "Klebsiella oxytoca": {"test_system": "Klebsiella oxytoca", "assay": "MIC vs enteric organisms: Klebsiella oxytoca", "conditions": "K. oxy., comparator antibacterials", "experimental": "as §1, §2"}, "Proteus mirabilis": {"test_system": "Proteus mirabilis", "assay": "MIC vs enteric organisms: Proteus mirabilis", "conditions": "P. mir., comparator antibacterials", "experimental": "as §1, §2"}, "[7]": {"test_system": "Stenotrophomonas maltophilia", "assay": "MIC vs non-fermenting organisms: Stenotrophomonas maltophilia", "conditions": "S. malt., comparator antibacterials", "experimental": "as §1, §2"}, "[8]": {"test_system": "Pseudomonas aeruginosa cystic fibrosis isolate 3224", "assay": "MIC vs cystic fibrosis isolate of P. aeruginosa 3224", "conditions": "strain 3224, Tobra R, comparator antibacterials", "experimental": "as §1, §2"}, "[9]": {"test_system": "Pseudomonas aeruginosa cystic fibrosis isolate 3236", "assay": "MIC vs cystic fibrosis isolate of P. aeruginosa 3236 (sensitive to most antibacterials)", "conditions": "strain 3236, Sensitive, comparator antibacterials", "experimental": "as §1, §2"}, "Escherichia coli": {"test_system": "Escherichia coli", "assay": "MIC vs enteric organisms: Escherichia coli clinical isolates", "experimental": "as §1, §2"}, "[10]": {"test_system": "Pseudomonas aeruginosa cystic fibrosis isolate 3198", "assay": "MIC vs cystic fibrosis isolate of P. aeruginosa 3198 (sensitive to most antibacterials)", "conditions": "strain 3198, Sensitive, comparator antibacterials", "experimental": "as §1, §2"}, "[11]": {"test_system": "Pseudomonas aeruginosa cystic fibrosis isolate 3317", "assay": "MIC vs cystic fibrosis isolate of P. aeruginosa 3317 (resistant to aztreonam)", "conditions": "strain 3317, Aztr. R, comparator antibacterials", "experimental": "as §1, §2"}, "Enterobacter aerogenes": {"test_system": "Enterobacter aerogenes", "assay": "MIC vs enteric organisms: Enterobacter aerogenes", "conditions": "Klebsiella aerogenes; E. aer.; comparator antibacterials", "experimental": "as §1, §2"}, "[12]": {"conditions": "Burkholderia cepacia, read-out: MIC"}, "[13]": {"conditions": "Escherichia coli, E. coli 2788, comparator antibacterials, read-out: MIC"}}, "note": "Where two headings read alike, the source gives them in different places.", "data": [{"smiles": "C[C@H]1[C@H](NC(=O)/C(=N\\OC(C)(C)C(=O)O)c2csc(N)n2)C(=O)N1S(=O)(=O)O", "note": "[Aztreonam, aztreonam, reference compound]", "values": [{"measurement": "MIC", "setting": "[1]", "value": "> 128", "unit": "µg/mL"}, {"measurement": "MIC", "setting": "[2]", "value": "> 128", "unit": "µg/mL"}, {"measurement": "MIC", "setting": "Enterobacter cloacae", "value": "≤ 0.13", "unit": "µg/mL"}, {"measurement": "MIC", "setting": "Burkholderia cepacia; [12]", "value": 64, "unit": "µg/mL"}, {"measurement": "MIC", "setting": "Serratia marcescens", "value": "≤ 0.13", "unit": "µg/mL"}, {"measurement": "MIC", "setting": "[3]", "value": 1, "unit": "µg/mL"}, {"measurement": "MIC", "setting": "[4]", "value": 1, "unit": "µg/mL"}, {"measurement": "MIC", "setting": "[5]", "value": 32, "unit": "µg/mL"}, {"measurement": "MIC", "setting": "[6]; P. aer 12307", "value": 16, "unit": "µg/mL"}, {"measurement": "MIC", "setting": "[6]; P. aer psa-6b", "value": 32, "unit": "µg/mL"}, {"measurement": "MIC", "setting": "Alcaligenes xylosoxidans", "value": 32, "unit": "µg/mL"}, {"measurement": "MIC", "setting": "Klebsiella pneumoniae", "value": 2, "unit": "µg/mL"}, {"measurement": "MIC", "setting": "Klebsiella oxytoca", "value": 0.5, "unit": "µg/mL"}, {"measurement": "MIC", "setting": "Proteus mirabilis", "value": "≤ 0.13", "unit": "µg/mL"}, {"measurement": "MIC", "setting": "[7]", "value": 16, "unit": "µg/mL"}, {"measurement": "MIC", "setting": "[8]", "value": 1, "unit": "µg/mL"}, {"measurement": "MIC", "setting": "[9]", "value": 0.5, "unit": "µg/mL"}, {"measurement": "MIC", "setting": "Escherichia coli; E. coli 1619, comparator antibacterials", "value": 64, "unit": "µg/mL"}, {"measurement": "MIC", "setting": "Escherichia coli; Escherichia coli, E. coli 1619, comparator antibacterials, read-out: MIC", "value": 128, "unit": "µg/mL"}, {"measurement": "MIC", "setting": "Escherichia coli; [13]", "value": "≤ 0.13", "unit": "µg/mL"}, {"measurement": "MIC", "setting": "[10]", "value": 1, "unit": "µg/mL"}, {"measurement": "MIC", "setting": "[11]", "value": 64, "unit": "µg/mL"}]}, {"smiles": "CO/N=C(\\C(=O)N[C@@H]1C(=O)N2C(C(=O)[O-])=C(C[N+]3(C)CCCC3)CS[C@H]12)c1csc(N)n1", "note": "[Cefepime, cefepime, reference compound]", "values": [{"measurement": "MIC", "setting": "[1]", "value": "> 128", "unit": "µg/mL"}, {"measurement": "MIC", "setting": "[2]", "value": 32, "unit": "µg/mL"}, {"measurement": "MIC", "setting": "Enterobacter cloacae", "value": "≤ 0.13", "unit": "µg/mL"}, {"measurement": "MIC", "setting": "Burkholderia cepacia", "value": 16, "unit": "µg/mL"}, {"measurement": "MIC", "setting": "Burkholderia cepacia; [12]", "value": 32, "unit": "µg/mL"}, {"measurement": "MIC", "setting": "Serratia marcescens", "value": "≤ 0.13", "unit": "µg/mL"}, {"measurement": "MIC", "setting": "[3]", "value": 2, "unit": "µg/mL"}, {"measurement": "MIC", "setting": "[4]", "value": 2, "unit": "µg/mL"}, {"measurement": "MIC", "setting": "[5]", "value": 8, "unit": "µg/mL"}, {"measurement": "MIC", "setting": "[6]; P. aer 12307", "value": 2, "unit": "µg/mL"}, {"measurement": "MIC", "setting": "[6]; P. aer psa-6b", "value": 8, "unit": "µg/mL"}, {"measurement": "MIC", "setting": "Alcaligenes xylosoxidans", "value": 8, "unit": "µg/mL"}, {"measurement": "MIC", "setting": "Klebsiella pneumoniae", "value": 8, "unit": "µg/mL"}, {"measurement": "MIC", "setting": "Klebsiella oxytoca", "value": "≤ 0.13", "unit": "µg/mL"}, {"measurement": "MIC", "setting": "Proteus mirabilis", "value": "≤ 0.13", "unit": "µg/mL"}, {"measurement": "MIC", "setting": "[8]", "value": 8, "unit": "µg/mL"}, {"measurement": "MIC", "setting": "[9]", "value": 2, "unit": "µg/mL"}, {"measurement": "MIC", "setting": "Escherichia coli; [13]", "value": "≤ 0.13", "unit": "µg/mL"}, {"measurement": "MIC", "setting": "[10]", "value": 4, "unit": "µg/mL"}, {"measurement": "MIC", "setting": "[11]", "value": 8, "unit": "µg/mL"}]}, {"smiles": "CC(C)(O/N=C(\\C(=O)N[C@@H]1C(=O)N2C(C(=O)[O-])=C(C[n+]3ccccc3)CS[C@H]12)c1csc(N)n1)C(=O)O", "note": "[Ceftazidime, ceftazidime, reference compound]", "values": [{"measurement": "MIC", "setting": "[1]", "value": "> 128", "unit": "µg/mL"}, {"measurement": "MIC", "setting": "[2]", "value": "> 128", "unit": "µg/mL"}, {"measurement": "MIC", "setting": "Enterobacter cloacae", "value": 0.25, "unit": "µg/mL"}, {"measurement": "MIC", "setting": "Burkholderia cepacia", "value": 4, "unit": "µg/mL"}, {"measurement": "MIC", "setting": "Burkholderia cepacia; [12]", "value": 8, "unit": "µg/mL"}, {"measurement": "MIC", "setting": "Serratia marcescens", "value": 0.25, "unit": "µg/mL"}, {"measurement": "MIC", "setting": "[3]", "value": 64, "unit": "µg/mL"}, {"measurement": "MIC", "setting": "[4]", "value": 2, "unit": "µg/mL"}, {"measurement": "MIC", "setting": "[5]", "value": 16, "unit": "µg/mL"}, {"measurement": "MIC", "setting": "[6]; P. aer 12307", "value": 4, "unit": "µg/mL"}, {"measurement": "MIC", "setting": "[6]; P. aer psa-6b", "value": 64, "unit": "µg/mL"}, {"measurement": "MIC", "setting": "Alcaligenes xylosoxidans", "value": 1, "unit": "µg/mL"}, {"measurement": "MIC", "setting": "Klebsiella pneumoniae", "value": 8, "unit": "µg/mL"}, {"measurement": "MIC", "setting": "Enterobacter aerogenes", "value": 32, "unit": "µg/mL"}, {"measurement": "MIC", "setting": "Klebsiella oxytoca", "value": 0.25, "unit": "µg/mL"}, {"measurement": "MIC", "setting": "Proteus mirabilis", "value": "≤ 0.13", "unit": "µg/mL"}, {"measurement": "MIC", "setting": "[7]; Stenotrophomonas maltophilia, read-out: MIC", "value": 1, "unit": "µg/mL"}, {"measurement": "MIC", "setting": "[8]", "value": 2, "unit": "µg/mL"}, {"measurement": "MIC", "setting": "[9]", "value": 0.25, "unit": "µg/mL"}, {"measurement": "MIC", "setting": "Escherichia coli; Escherichia coli", "value": "> 128", "unit": "µg/mL"}, {"measurement": "MIC", "setting": "Escherichia coli; [13]", "value": 0.25, "unit": "µg/mL"}, {"measurement": "MIC", "setting": "[10]", "value": 2, "unit": "µg/mL"}, {"measurement": "MIC", "setting": "[11]", "value": 4, "unit": "µg/mL"}]}]}
